According to patent publication US11912645B2, “Lipopeptide compounds for the treatment of pain disorders” (INSERM (Institut National de la Santé et de la Recherche …, priority 2017, dated 2024):

Tests used:
Caco-2 cells = experiment: Absorption across Caco-2 monolayer in transwell chambers; type: in vitro ADME, human; details: 800 ng apical, 24 h, LC-HRMS
Method: FIG. 5: C12-Asn-GABA crosses the epithelial barrier without modifying epithelial cells physiology. Caco-2 cells were cultivated into transwell chambers. After treatment with C12-Asn-GABA (800 ng) at the apical side, C12-Asn-GABA was quantified inside the cells and both the apical and basolateral compartments by LC-MS/MS (A); data are represented as mean±SEM, n=3 experiments of 3 wells per condition. Extracted ion chromatogram at the exact mass of GABA (104.0702 m/z) with a mass accuracy of 5 ppm of the GABA commercial standard (GABA (Std.) and apical and basolateral compartments after loading or not Caco-2 cells with 800 ng of GABA at the apical site (B); representation of one well, n=3 experiments of 3 wells per condition. Paracellular permeability assessed by the passage of FITC-dextran loaded at the apical side (C) and CXCL8 secretion assessed by ELISA (D) were monitored after treatment of Caco-2 cells at the apical side with C12-Asn-GABA (10 μM); data are represented as mean±SEM, n=3 experiments of 3 wells per condition. […]
Caco-2 cells were grown in Glutamax DMEM (Gibco, Invitrogen life technologies, Paisley, UK) supplemented with 10% heat-inactivated fetal bovine serum (FBS) (Gibco, Invitrogen life technologies, Paisley, UK), 1% nonessential amino acids and 1% antibiotics (100 U/ml penicillin and […] streptomycin (Gibco, Invitrogen life technologies, Grand Island, N.Y., USA) at 37° C. in a 5% C02 water-saturated atmosphere. Cells were seeded on Transwell inserts (Costar, Sigma-Aldrich, Saint-Quentin Fallavier, France) and absorption studies of C12-Asn-GABA and GABA were performed 16 days later. These compounds were quantified by LC-MS/MS in both apical and basolateral chambers as well as in cells. The effect of C12-Asn-GABA (1-100 μM) on paracellular permeability was also measured by mucosal-to-serosal flux of 4 kDa Fluorescein Isothiocyanate (FITC)-labelled dextran as previously described^31. […]
The initial barrier for any drug absorption is the intestinal epithelial cell wall. […] The transport of GABA alone across the cell monolayer was also assessed. […]

[1] = system: mouse sensory neurons activated by capsaicin; experiment: Calcium flux in sensory neurons activated by capsaicin (TRPV1 agonist); type: cell-based
Method: (§1) FIG. 4: C12-Asn-GABA inhibits neuronal activation via the GABA B receptor. Amplitude of intracellular calcium mobilization (ΔF/F; right panel) in mouse sensory neurons and percentage of responding neurons (left panel) pretreated with increasing amounts of C12-Asn-GABA (black circle) or vehicle (HBSS; white circle) and treated with capsaicin (125 nM; A) or a mix of G protein coupled receptor agonists (histamine, serotonin and bradykinin 10 μM each; B). Data are represented as mean±SEM; n=4 independent experiments of 3 wells per condition and 30-80 neurons per well. […] Percentage of responding neurons pretreated with increasing amounts of saclofen (black circle) or vehicle (HBSS; white circle) and treated with C12-Asn-GABA (10 μM) and capsaicin (125 nM; C) or a mix of G protein coupled receptor agonist (histamine, serotonin and bradykinin 10 μM each; D). Data are represented as mean±SEM; n=4 independent experiments of 3 wells per condition and 30-80 neurons per well.
FIG. 7: C14-Asn-GABA inhibits neuronal activation by capsaicin. Amplitude of intracellular calcium mobilization (F/F; A) in mouse sensory neurons and percentage of responding neurons (B) pretreated with 10 μM of C14-Asn-GABA (black bar) or vehicle (HBSS; white bar) and treated with capsaicin (125 nM). Data are represented as mean±SEM; n=3 independent experiments of 3 wells per condition and 35-82 neurons per well.
(§2) Male C57B16 mice (6-8 weeks) were used to produce primary cultures of dorsal root ganglia (DRG) sensory neurons for calcium flux experiments, and to perform studies of colorectal distention and intestinal isotonic contraction. All procedures were approved by Institutional Animal Care Committees (CEEA 122).
To determine whether C12-Asn-GABA or C12-Asn-BABA is capable of signaling to sensory nerves, calcium mobilization studies were performed on primary cultures of mouse dorsal root ganglia (DRG) neurons. […]

[2] = system: capsaicin-induced visceral hypersensitivity; experiment: Capsaicin-induced visceral hypersensitivity, visceromotor response to colorectal distension; type: in vivo, mouse; details: oral 25 mg/kg, 4 hours before intracolonic capsaicin 100 μg/mouse
Method: FIG. 6: C12-Asn-GABA inhibits capsaicin-induced visceral hypersensitivity without altering Intestinal contraction. Mice received intracolonic administration of C12-Asn-GABA (10 μM; black symbols) or vehicle (40% ethanol; white symbols) and 30 minutes or 4 hours later colon (A) and blood (B) were harvested in order to quantify C12-Asn-GABA by LC-MS/MS. Data are expressed as mean±SEM, n=8 mice per group. […] Mice received intracolonic administration of C12-Asn-GABA (10 μM; black symbols) or vehicle (40% ethanol; white symbols) and 30 minutes or 4 hours later an intracolonic administration of capsaicin (100 μg/mouse; square) or its vehicle (40% ethanol; circle). Fifteen minutes after capsaicin or vehicle treatment, visceromotor response (VMR) to increasing pressures of colorectal distension was performed. Data are expressed as mean±SEM, n=7-8 mice per group. […] Ex vivo measurement of duodenal mechanical contraction frequency (B) and amplitude (C) in response to Krebs-Ringer solution (control; white bar), to DMSO 0.2% (vehicle; gray bar) or to C12-Asn-GABA (10 μM; black bar). Data are expressed as mean±SEM, n=5-6 per group. Statistical analysis was performed using Kruskal-Wallis analysis of variance and subsequent Dunn's post hoc test.
FIG. 8: Trimebutine maleate has no effect on capsaicin-induced visceral hypersensitivity. Mice received an oral treatment with vehicle (PEG200, white circle) or with trimebutine maleate (25 mg/kg, black circle) and 4 hours later an intracolonic administration of capsaicin (100 μg/mouse; black and white circle). Fifteen minutes after capsaicin, visceromotor response (VMR) to increasing pressures of colorectal distension was performed. Data are expressed as mean±SEM, n=7-8 mice per group. […]
In a first set of experiment, we assessed the ability of the C12-Asn-GABA to cross the epithelial barrier, in vivo. […] The impact of C12-Asn-GABA on visceral hypersensitivity was assessed by measuring the visceromotor responses (VMR) to colorectal distension (CRD). […]

[3] = system: mouse sensory neurons activated by mix of GPCR agonists (histamine, serotonin, bradykinin); experiment: Calcium flux in sensory neurons activated by mix of GPCR agonists; type: cell-based; details: serotonin 10 μM each, pretreatment with increasing amounts of compound
Method: as §1
as §2, with “122). […]” for “122).”

[4] = system: mouse dorsal root ganglia (DRG) neurons; experiment: Calcium mobilization in primary DRG sensory neurons, basal (unstimulated); type: cell-based; details: 10 μM
Method: as §2
To determine whether C12-Asn-GABA or C12-Asn-BABA is capable of signaling to sensory nerves, calcium mobilization studies were performed on primary cultures of mouse dorsal root ganglia (DRG) neurons. […] The same experiments were thereafter performed in neurons activated by either an agonist of the receptor calcium channel TRPV1 (capsaicin) or by a mix of agonists (histamine, serotonin and bradykinin) for G protein coupled receptors (GPCR) implicated in visceral hypersensitivity. Exposure of neurons to either capsaicin (125 nM) or the mix of GPCR agonists (histamine, bradykinin, serotonin, 10 μM each) induced an increase in calcium flux as shown by the higher % of responding neurons and amplitude of the response (ΔF/F) compared to the vehicle (FIG. 4A, 4B). […] To investigate whether the inhibitory effect of C12-Asn-GABA was associated to the GABA residue, neurons were treated with saclofen (10, 50, and 100 μM), a competitive antagonist of the GABAB receptor. […]

Compound: NCCCC(=O)O [GABA, gamma-Aminobutyric acid, reference compound]
- presence in the basal chamber (Caco-2 cells): not detected

Compound: CCCCCCCCCCCCCC(=O)NC(CC(N)=O)C(=O)NCCCC(=O)O (stereo not drawn) [C14-Asn-GABA]
- calcium flux increase induced by capsaicin (amplitude, % responding neurons) ([1]; 10 μM, pre-treated 5 minutes before capsaicin 125 nM): prevented by C14-Asn-GABA pretreatment

Compound: trimebutine maleate [reference compound]
- hypersensitivity induced by capsaicin (VMR to CRD) [2]: has no effect

Compound: CCCCCCCCCCCC(=O)N[C@@H](CC(N)=O)C(=O)NC(C)CC(=O)O (stereo partly drawn) [C12-Asn-BABA, C12-Asn-β-aminobutyric]
- calcium flux increase induced by capsaicin (% responding neurons, amplitude ΔF/F) ([1]; capsaicin 125 nM, pretreatment with increasing amounts of compound): had no effect
- calcium flux increase induced by mix of GPCR agonists (% responding neurons, amplitude ΔF/F) [3]: had no effect
- calcium mobilization under basal (unstimulated) conditions [4]: None of the isomers (10 μM) induced calcium mobilization
